Test results from the CheMixHub viscosity set.
± gives the uncertainty stated by the source.

Assay: xn = mol fraction of the nth substance listed

CCCCCCCCC + CC1CCCCC1
viscosity [mPa·s], 101 kPa
Details	293.15 K	298.15 K	303.15 K	308.15 K
x2 = 0.0426	0.7162 ± 0.006	0.6637 ± 0.0056	0.6214 ± 0.0054	–
x2 = 0.1052	–	0.664 ± 0.013	0.625 ± 0.012	0.585 ± 0.012
x2 = 0.1496	0.7103 ± 0.0062	0.6606 ± 0.0058	0.6176 ± 0.0055	–
x2 = 0.198	–	0.66 ± 0.013	0.614 ± 0.012	0.58 ± 0.011
x2 = 0.2805	0.7065 ± 0.0065	0.6594 ± 0.0061	0.6151 ± 0.0058	–
x2 = 0.299	–	0.658 ± 0.013	0.616 ± 0.012	0.578 ± 0.011
x2 = 0.3606	0.7056 ± 0.0067	0.66 ± 0.0063	0.6148 ± 0.006	–
x2 = 0.4018	–	0.659 ± 0.012	0.616 ± 0.012	0.577 ± 0.011
x2 = 0.4418	0.707 ± 0.0069	0.6607 ± 0.0065	0.6168 ± 0.0062	–
x2 = 0.4978	–	0.659 ± 0.012	0.617 ± 0.012	0.577 ± 0.011
x2 = 0.5953	0.7117 ± 0.0073	0.6639 ± 0.0069	0.6225 ± 0.0066	–
x2 = 0.5982	–	0.661 ± 0.012	0.62 ± 0.012	0.578 ± 0.011
x2 = 0.6794	0.7158 ± 0.0076	0.6669 ± 0.0072	0.6292 ± 0.0068	–
x2 = 0.6991	–	0.662 ± 0.012	0.618 ± 0.011	0.58 ± 0.011
x2 = 0.7579	0.7196 ± 0.0079	0.6709 ± 0.0074	0.6339 ± 0.0071	–
x2 = 0.7995	–	0.665 ± 0.012	0.62 ± 0.011	0.582 ± 0.011
x2 = 0.8388	0.7243 ± 0.0082	0.6757 ± 0.0077	0.6383 ± 0.0073	–
x2 = 0.9012	–	0.671 ± 0.012	0.626 ± 0.011	0.587 ± 0.011
x2 = 0.9078	0.7296 ± 0.0084	0.6788 ± 0.0079	0.6428 ± 0.0075	–

CCCCCCCCC + CCCCCCCC
298.15 K, 101.33 kPa
Details	viscosity [mPa·s]
x2 = 0.1092	0.631 ± 0.0086
x2 = 0.2071	0.6264 ± 0.0086
x2 = 0.3038	0.6069 ± 0.0083
x2 = 0.4058	0.5951 ± 0.0082
x2 = 0.5051	0.5768 ± 0.008
x2 = 0.6076	0.5586 ± 0.0078
x2 = 0.7044	0.5497 ± 0.0077
x2 = 0.8047	0.5318 ± 0.0075
x2 = 0.9025	0.5116 ± 0.0073

C1COCO1 + CCCO
303.15 K, 101 kPa
Details	viscosity [mPa·s]
x1 = 0.08269	1.258 ± 0.022
x1 = 0.1686	1.067 ± 0.021
x1 = 0.258	0.9345 ± 0.021
x1 = 0.351	0.8208 ± 0.021
x1 = 0.4479	0.7339 ± 0.021
x1 = 0.5489	0.6454 ± 0.02
x1 = 0.6543	0.592 ± 0.02
x1 = 0.7644	0.5684 ± 0.02
x1 = 0.8795	0.5564 ± 0.02

C1COCO1 + CCC(C)O
viscosity [mPa·s]
Details	298.15 K	303.15 K	313.15 K
101 kPa, x1 = 0.1001	–	1.516 ± 0.022	–
101 kPa, x1 = 0.2001	–	1.181 ± 0.021	–
101 kPa, x1 = 0.3001	–	0.9354 ± 0.021	–
101 kPa, x1 = 0.4001	–	0.812 ± 0.021	–
101 kPa, x1 = 0.5001	–	0.7072 ± 0.021	–
101 kPa, x1 = 0.6001	–	0.6589 ± 0.02	–
101 kPa, x1 = 0.7001	–	0.612 ± 0.02	–
101 kPa, x1 = 0.8001	–	0.5894 ± 0.02	–
101 kPa, x1 = 0.9001	–	0.5588 ± 0.02	–
101.33 kPa, x1 = 0.0987	1.997 ± 0.024	–	1.29 ± 0.015
101.33 kPa, x1 = 0.1966	1.454 ± 0.017	–	1.016 ± 0.012
101.33 kPa, x1 = 0.2957	1.149 ± 0.014	–	0.8449 ± 0.01
101.33 kPa, x1 = 0.3994	0.9497 ± 0.011	–	0.7262 ± 0.0088
101.33 kPa, x1 = 0.5008	0.8242 ± 0.01	–	0.6486 ± 0.0079
101.33 kPa, x1 = 0.6023	0.7412 ± 0.009	–	0.593 ± 0.0073
101.33 kPa, x1 = 0.699	0.6698 ± 0.0082	–	0.55 ± 0.0068
101.33 kPa, x1 = 0.8014	0.6265 ± 0.0077	–	0.5218 ± 0.0065
101.33 kPa, x1 = 0.9023	0.5997 ± 0.0074	–	0.5052 ± 0.0063

ClC(Cl)C(Cl)(Cl)Cl + CC(C)=O
298.15 K, 101 kPa
Details	viscosity [mPa·s]
x2 = 0.1476	1.93 ± 0.05
x2 = 0.3178	1.52 ± 0.04
x2 = 0.5103	1.12 ± 0.03
x2 = 0.7037	0.695 ± 0.018
x2 = 0.9068	0.417 ± 0.011

C1COCO1 + CCCCOCCO
298.15 K, 101 kPa
Details	viscosity [mPa·s]
x1 = 0.1506	2.2 ± 0.017
x1 = 0.2851	1.773 ± 0.013
x1 = 0.4061	1.465 ± 0.011
x1 = 0.5154	1.229 ± 0.0097
x1 = 0.6147	1.053 ± 0.0085
x1 = 0.7053	0.9156 ± 0.0075
x1 = 0.7882	0.8012 ± 0.0067
x1 = 0.8645	0.7116 ± 0.006
x1 = 0.9349	0.6419 ± 0.0055

CCCCCCCCC + CC(C)CC(C)(C)C
298.15 K, 101 kPa
Details	viscosity [mPa·s]
x2 = 0.07718	0.6409 ± 0.0064
x2 = 0.2128	0.6118 ± 0.0061
x2 = 0.3294	0.5969 ± 0.006
x2 = 0.4097	0.5806 ± 0.0058
x2 = 0.5252	0.5564 ± 0.0056
x2 = 0.6958	0.5351 ± 0.0054
x2 = 0.7143	0.5219 ± 0.0052
x2 = 0.8186	0.5071 ± 0.0051
x2 = 0.8823	0.4985 ± 0.005
x2 = 0.9211	0.4877 ± 0.0049
x2 = 0.9661	0.4829 ± 0.0049

FCC(F)(F)F + FCF
viscosity [mPa·s], 101 kPa
Details	x1 = 0.245	x1 = 0.518	x1 = 0.756
298.15 K	0.1241 ± 0.0028	0.1379 ± 0.0031	0.1592 ± 0.0035
313.15 K	0.1031 ± 0.0024	0.1152 ± 0.0027	0.129 ± 0.0029

CN(C)P(=O)(N(C)C)N(C)C + CO
303.15 K, 101.3 kPa
Details	viscosity [mPa·s]
x1 = 0.0993	0.829 ± 0.013
x1 = 0.2036	1.145 ± 0.016
x1 = 0.2984	1.401 ± 0.02
x1 = 0.3941	1.63 ± 0.026
x1 = 0.4882	1.846 ± 0.031
x1 = 0.5898	2.07 ± 0.039
x1 = 0.6978	2.308 ± 0.047
x1 = 0.778	2.476 ± 0.055
x1 = 0.8966	2.722 ± 0.066

C1COCO1 + C1CCOC1
298.15 K, 101 kPa
Details	viscosity [mPa·s]
x2 = 0.1025	0.5975 ± 0.0052
x2 = 0.2043	0.5993 ± 0.0052
x2 = 0.3057	0.5923 ± 0.0051
x2 = 0.4065	0.5804 ± 0.005
x2 = 0.5067	0.5634 ± 0.0049
x2 = 0.6065	0.5438 ± 0.0048
x2 = 0.7056	0.5224 ± 0.0046
x2 = 0.8043	0.501 ± 0.0044
x2 = 0.9024	0.4802 ± 0.0043

ClC(Cl)C(Cl)(Cl)Cl + CC(=O)c1ccccc1
298.15 K, 101 kPa
Details	viscosity [mPa·s]
x2 = 0.1163	2.34 ± 0.06
x2 = 0.3295	2.36 ± 0.06
x2 = 0.5338	2.26 ± 0.06
x2 = 0.7313	2.03 ± 0.05
x2 = 0.8974	1.8 ± 0.05

ClC(Cl)C(Cl)(Cl)Cl + CCOc1ccccc1
298.15 K, 101 kPa
Details	viscosity [mPa·s]
x2 = 0.0971	2.1 ± 0.06
x2 = 0.2214	1.92 ± 0.05
x2 = 0.4895	1.607 ± 0.042
x2 = 0.6798	1.393 ± 0.037
x2 = 0.903	1.206 ± 0.032
